According to patent EP3717657B1, “A SYSTEM FOR ASSESSING MICROBIAL SUSCEPTIBILITY TO ANTIBIOTIC AGENTS” (Ascilion AB, priority 2017, dated 2019):
Converted amounts (≈) assume the structure as drawn.

Assays:
[1] = system: Escherichia coli (ATCC 25922); assay: Antibiotic susceptibility by glucose consumption in culture medium, blood culture bottle inoculum (Example 1); type: cell-based; details: for Glucose concentration t=0: 0 minutes; for Glucose concentration t=60: 60 minutes; for Glucose concentration t=120: 120 minutes; for Glucose concentration t=180: 180 minutes; for dC/dT: rate of change in glucose concentration; for Glucose concentration t=240: 240 minutes;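 as to dC/dT: rate calculated between the 60 and 180 min readings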
Method: (§1) Strains of Escherichia coli (ATCC 25922), Enterococcus faecalis (ATCC 29212) and Staphylococcus aureus (ATCC 29213) were inoculated in blood culture bottles (SVA, Uppsala, Sweden) and cultivated according to the manufacturer's instructions until positive.
(§2) Medium from each blood culture bottle was diluted 1:100 with cation adjusted Mueller-Hinton broth (SVA, Uppsala, Sweden) supplemented with glucose to a concentration of 1.0 mg/mL.
(§3) Table 1: Concentrations of antibiotic agents are given in µg/mL.
(§4) Glucose concentrations were measured at 0, 60, 120, 180, and 240 minutes using a WaveSense Jazz glucometer (AgaMatrix, Inc., Salem, NH, USA) with accompanying test strips.
(§5) Susceptibility scores corresponding to MIC values were calculated as described above. A 80% threshold was applied, i.e. the lowest concentration of antibiotic that entailed a rate of change in glucose concentration that was equal to or less than 80% of the reference was selected as the Minimal Inhibitory Concentration. The rate of change was calculated between the measurements at 60 and 180 minutes.

[2] = system: Staphylococcus aureus (ATCC 29213); assay: as above; type: cell-based; details: for Glucose concentration t=0: 0 minutes; for Glucose concentration t=60: 60 minutes; for Glucose concentration t=120: 120 minutes; for Glucose concentration t=180: 180 minutes; for Glucose concentration t=240: 240 minutes; for dC/dT: rate of change in glucose concentration;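 as to dC/dT: rate calculated between the 60 and 180 min readings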
Method: as §1, §2, §3, §4, §5

- MIC ([1]; Escherichia coli, ATCC25922, E.coli, 80% threshold of rate of change vs reference, between 60 and 180 minutes, obtained in 4 hours, read-out: MIC Measured): 4 mg/L (≈ 9.36 µM)
- MIC ([2]; Staphylococcus aureus, ATCC29213, S.aureus, 80% threshold of rate of change vs reference, between 60 and 180 minutes, obtained in 4 hours, read-out: MIC Measured): 2 mg/L (≈ 4.68 µM)
SMILES: CO[C@@]1(NC(=O)Cc2cccs2)C(=O)N2C(C(=O)O)=C(COC(N)=O)CS[C@@H]21 [Cefoxitin]
- F=the rate of change in glucose concentration in relation to the reference ([1]; [Ab] 0,5 µg/mL): 139%
- Glucose concentration t=0 ([1]; [Ab] 0,5 µg/mL): 139
- Glucose concentration t=60 ([1]; [Ab] 0,5 µg/mL): 154
- Glucose concentration t=120 ([1]; [Ab] 0,5 µg/mL): 140
- Glucose concentration t=180 ([1]; [Ab] 0,5 µg/mL): 54
- dC/dT ([1]; [Ab] 0,5 µg/mL): 86
- F=the rate of change in glucose concentration in relation to the reference ([1]; [Ab] 0,25 µg/mL): 165%
- Glucose concentration t=0 ([1]; [Ab] 0,25 µg/mL): 145
- Glucose concentration t=60 ([1]; [Ab] 0,25 µg/mL): 157
- Glucose concentration t=120 ([1]; [Ab] 0,25 µg/mL): 143
- Glucose concentration t=180 ([1]; [Ab] 0,25 µg/mL): 41
- dC/dT ([1]; [Ab] 0,25 µg/mL): 102
- F=the rate of change in glucose concentration in relation to the reference ([1]; [Ab] 1 µg/mL): 129%
- Glucose concentration t=0 ([1]; [Ab] 1 µg/mL): 144
- Glucose concentration t=60 ([1]; [Ab] 1 µg/mL): 150
- Glucose concentration t=120 ([1]; [Ab] 1 µg/mL): 143
- Glucose concentration t=180 ([1]; [Ab] 1 µg/mL): 63
- dC/dT ([1]; [Ab] 1 µg/mL): 80
- F=the rate of change in glucose concentration in relation to the reference ([1]; [Ab] 2 µg/mL): 102%
- Glucose concentration t=0 ([1]; [Ab] 2 µg/mL): 143
- Glucose concentration t=60 ([1]; [Ab] 2 µg/mL): 163
- Glucose concentration t=120 ([1]; [Ab] 2 µg/mL): 138
- Glucose concentration t=180 ([1]; [Ab] 2 µg/mL): 75
- dC/dT ([1]; [Ab] 2 µg/mL): 63
- F=the rate of change in glucose concentration in relation to the reference ([1]; [Ab] 4 µg/mL): 19%
- Glucose concentration t=0 ([1]; [Ab] 4 µg/mL): 146
- Glucose concentration t=60 ([1]; [Ab] 4 µg/mL): 149
- Glucose concentration t=120 ([1]; [Ab] 4 µg/mL): 140
- Glucose concentration t=180 ([1]; [Ab] 4 µg/mL): 125
- Glucose concentration t=240 ([1]; [Ab] 4 µg/mL): 116
- dC/dT ([1]; [Ab] 4 µg/mL): 12
- F=the rate of change in glucose concentration in relation to the reference ([1]; [Ab] 8 µg/mL): 18%
- Glucose concentration t=0 ([1]; [Ab] 8 µg/mL): 145
- Glucose concentration t=60 ([1]; [Ab] 8 µg/mL): 164
- Glucose concentration t=120 ([1]; [Ab] 8 µg/mL): 149
- Glucose concentration t=180 ([1]; [Ab] 8 µg/mL): 132
- Glucose concentration t=240 ([1]; [Ab] 8 µg/mL): 127
- dC/dT ([1]; [Ab] 8 µg/mL): 11
- F=the rate of change in glucose concentration in relation to the reference ([1]; [Ab] 16 µg/mL): 6%
- Glucose concentration t=0 ([1]; [Ab] 16 µg/mL): 142
- Glucose concentration t=60 ([1]; [Ab] 16 µg/mL): 152
- Glucose concentration t=120 ([1]; [Ab] 16 µg/mL): 152
- Glucose concentration t=180 ([1]; [Ab] 16 µg/mL): 141
- Glucose concentration t=240 ([1]; [Ab] 16 µg/mL): 145
- dC/dT ([1]; [Ab] 16 µg/mL): 4
- F=the rate of change in glucose concentration in relation to the reference ([1]; [Ab] 32 µg/mL): 5%
- Glucose concentration t=0 ([1]; [Ab] 32 µg/mL): 146
- Glucose concentration t=60 ([1]; [Ab] 32 µg/mL): 150
- Glucose concentration t=120 ([1]; [Ab] 32 µg/mL): 143
- Glucose concentration t=180 ([1]; [Ab] 32 µg/mL): 142
- Glucose concentration t=240 ([1]; [Ab] 32 µg/mL): 137
- dC/dT ([1]; [Ab] 32 µg/mL): 3
- F=the rate of change in glucose concentration in relation to the reference ([2]; [Ab] 0,5 µg/mL): 96%
- Glucose concentration t=0 ([2]; [Ab] 0,5 µg/mL): 144
- Glucose concentration t=60 ([2]; [Ab] 0,5 µg/mL): 155
- Glucose concentration t=120 ([2]; [Ab] 0,5 µg/mL): 130
- Glucose concentration t=180 ([2]; [Ab] 0,5 µg/mL): 91
- Glucose concentration t=240 ([2]; [Ab] 0,5 µg/mL): 32
- dC/dT ([2]; [Ab] 0,5 µg/mL): 32
- F=the rate of change in glucose concentration in relation to the reference ([2]; [Ab] 0,25 µg/mL): 91%
- Glucose concentration t=0 ([2]; [Ab] 0,25 µg/mL): 143
- Glucose concentration t=60 ([2]; [Ab] 0,25 µg/mL): 152
- Glucose concentration t=120 ([2]; [Ab] 0,25 µg/mL): 132
- Glucose concentration t=180 ([2]; [Ab] 0,25 µg/mL): 91
- Glucose concentration t=240 ([2]; [Ab] 0,25 µg/mL): 33
- dC/dT ([2]; [Ab] 0,25 µg/mL): 31
- F=the rate of change in glucose concentration in relation to the reference ([2]; [Ab] 1 µg/mL): 82%
- Glucose concentration t=0 ([2]; [Ab] 1 µg/mL): 147
- Glucose concentration t=60 ([2]; [Ab] 1 µg/mL): 155
- Glucose concentration t=120 ([2]; [Ab] 1 µg/mL): 133
- Glucose concentration t=180 ([2]; [Ab] 1 µg/mL): 100
- Glucose concentration t=240 ([2]; [Ab] 1 µg/mL): 40
- dC/dT ([2]; [Ab] 1 µg/mL): 28
- F=the rate of change in glucose concentration in relation to the reference ([2]; [Ab] 2 µg/mL): 72%
- Glucose concentration t=0 ([2]; [Ab] 2 µg/mL): 141
- Glucose concentration t=60 ([2]; [Ab] 2 µg/mL): 146
- Glucose concentration t=120 ([2]; [Ab] 2 µg/mL): 143
- Glucose concentration t=180 ([2]; [Ab] 2 µg/mL): 98
- Glucose concentration t=240 ([2]; [Ab] 2 µg/mL): 61
- dC/dT ([2]; [Ab] 2 µg/mL): 24
- F=the rate of change in glucose concentration in relation to the reference ([2]; [Ab] 4 µg/mL): 16%
- Glucose concentration t=0 ([2]; [Ab] 4 µg/mL): 142
- Glucose concentration t=60 ([2]; [Ab] 4 µg/mL): 150
- Glucose concentration t=120 ([2]; [Ab] 4 µg/mL): 143
- Glucose concentration t=180 ([2]; [Ab] 4 µg/mL): 139
- Glucose concentration t=240 ([2]; [Ab] 4 µg/mL): 139
- dC/dT ([2]; [Ab] 4 µg/mL): 6
- F=the rate of change in glucose concentration in relation to the reference ([2]; [Ab] 8 µg/mL): 24%
- Glucose concentration t=0 ([2]; [Ab] 8 µg/mL): 136
- Glucose concentration t=60 ([2]; [Ab] 8 µg/mL): 157
- Glucose concentration t=120 ([2]; [Ab] 8 µg/mL): 160
- Glucose concentration t=180 ([2]; [Ab] 8 µg/mL): 141
- Glucose concentration t=240 ([2]; [Ab] 8 µg/mL): 149
- dC/dT ([2]; [Ab] 8 µg/mL): 8
- F=the rate of change in glucose concentration in relation to the reference ([2]; [Ab] 16 µg/mL): 22%
- Glucose concentration t=0 ([2]; [Ab] 16 µg/mL): 140
- Glucose concentration t=60 ([2]; [Ab] 16 µg/mL): 157
- Glucose concentration t=120 ([2]; [Ab] 16 µg/mL): 152
- Glucose concentration t=180 ([2]; [Ab] 16 µg/mL): 142
- Glucose concentration t=240 ([2]; [Ab] 16 µg/mL): 142
- dC/dT ([2]; [Ab] 16 µg/mL): 8
- F=the rate of change in glucose concentration in relation to the reference ([2]; [Ab] 32 µg/mL): 27%
- Glucose concentration t=0 ([2]; [Ab] 32 µg/mL): 145
- Glucose concentration t=60 ([2]; [Ab] 32 µg/mL): 154
- Glucose concentration t=120 ([2]; [Ab] 32 µg/mL): 145
- Glucose concentration t=180 ([2]; [Ab] 32 µg/mL): 136
- Glucose concentration t=240 ([2]; [Ab] 32 µg/mL): 139
- dC/dT ([2]; [Ab] 32 µg/mL): 9
